Test results published in patent US11471460B2, “Autophagy modulators for use in treating cancer” (The United States of America,as represented by the …, priority 2017, dated 2022).
pEC50: −log10 of the molar value.

Columns and labels:
embryonic kidney cells = assay: Viability of embryonic kidney cells; assay type: cell-based; details: Homo sapiens; embryonic kidney cells; read-out: EC50
Protocol: (§1) FIG. 18 summarizes results from 13 human cell lines. All cells were seeded at the same cell density in a rich culture medium and assayed under identical conditions. Compound 1 efficacy is the ratio of cell viability with compound 1 to cell viability with chloroquine derivatives.
(§2) Cells were obtained from the American Type Culture Collection. BORCS5-KO HeLa cells have been described previously. Osteosarcoma U2OS were routinely seeded in 6-well plates (0.5×10^5 cells/well) and cultured in Dulbecco's Modified Eagle's medium supplemented with L-Glutamine, 4.5 g/L Glucose, Sodium Pyruvate, Phenol Red, and either heat-inactivated or normal 10% fetal calf serum at 37° C. in 5% CO2. Approximately 15-19 hours later, the indicated compound was added in 1:1000 dilutions. […] Melanoma A375, embryonic kidney 293T and human foreskin fibroblast Hs27 cells were cultured in the same medium, except that cells were seeded into 12-well plates at 10^3 cells/well.

[1] = test system: breast adenocarcinoma cells; assay: Viability of breast adenocarcinoma cells; assay type: cell-based; details: Homo sapiens; breast adenocarcinoma cells; read-out: EC50
Protocol: as §1

[2] = test system: LC3-II and p62 in U2OS cells; assay: Accumulation of autophagosome markers LC3-II and p62, Western immuno-blotting; assay type: cell-based, human
Protocol: Cells were cultured for 4 hrs before total cell extracts were subjected to Western immuno-blotting for LC3, p62 and β-actin. Blot was developed with film. […] (C) U2OS cells were cultured for the times indicated in the presence of 1.2 μM compound 1 to produce 80% of the maximum observed in FIG. 10A. Total cell extracts were assayed at the times indicated. […] All blots were stained with Ponceau S […].
(§3) Total cell lysates were prepared (in 4× dye). Proteins were fractionated at 200V in a NuPAGE 4-12% bis-tris polyacrylamide gel (NP0323, Novex) using NuPAGE MES running buffer (NP0002, Novex) and then stained with PageBlue (24260, Thermo Scientific) in order to quantify the relative amount of histones in each sample. […] Proteins were wet-transferred onto nitrocellulose membranes (162-0112, Bio-Rad) using NuPAGE transfer buffer (NP-0006-1, Novex) for 1 hour at 30V. Membranes were then stained with dilute Ponceau S solution, blocked in 5% milk for 30 minutes at room temperature, and incubated overnight at 4° C. in primary antibody. Membranes were washed with phosphate buffered saline with tween 20 (PBST) three times for 10 min. each, incubated with secondary antibodies in 5% milk for 1 hour, washed three times with PBST again, covered in ECL (SuperSignal West Pico chemiluminescent substrate, 34080, Thermo Scientific) and exposed to film (HyBlot ES, E3218, Denville Scientific).

melanoma A375 cells = assay: Cytoplasmic vacuolization of A375 cells; assay type: cell-based, human
[3] = test system: cathepsin D (CTSD) in U2OS cells; assay: Cathepsin D maturation, Western immuno-blotting; assay type: cell-based, human; details: 4 h
Protocol: Mature and immature cathepsin D (CTSD), LC3-I, LC3-II, and β-actin proteins were identified by Western immuno-blotting, under the same conditions, and detected with specific antibodies and by co-fractionation with molecular mass markers (kDa). Cathepsin D maturation via proteolysis requires acidity.
as §3

[4] = test system: human foreskin fibroblasts; assay: Proliferation/viability of human foreskin fibroblasts; assay type: cell-based; details: Fibroblast; human foreskin fibroblasts; read-out: EC50
Protocol: Concentration of each compound in the plate assay is indicated below the compound 1 plate.
as §2

melanoma A375 tumors = assay: Vacuolation and autophagy markers within tumors of treated mice; assay type: in vivo
Excerpt: Cytoplasmic vacuolation was clear in tumors from compound 1-treated mice, and the extent of vacuolation was clearly greater at with greater concentrations of compound 1.
To determine whether or not compound 1 injected intraperitoneally was active within the tumor, tumor slices were stained with hematoxylin and eosin to visualize cellular structure.

osteosarcoma U2OS cells = assay: U2OS cell viability (cellular ATP); assay type: cell-based, human
Excerpt: These effects are dependent on the compound selected, its concentration and the length of time cells are exposed to the compound.

U2OS cells = assay: GFP-LC3 / LAMP1-RFP co-localization (autolysosome formation); assay type: cell-based, human; details: compound 1 or rapamycin and compound 1, 4 hours
Protocol: Confocal microscopic images are shown in FIG. 13A of U2OS cells that were co-transfected with a GFP-LC3B expression vector to label autophagosomes green and a LAMP1-RFP expression vector to label lysosomes red. Cells were then treated for 4 hrs with 1 μM rapamycin to induce autophagy, or with 1 μM compound 1 to disrupt autophagy, or with both 1 μM rapamycin and 1 μM compound 1. Cells were then fixed and viewed by confocal microscopy. Nuclei were stained with DAPI. […] The mean±SEM results from 50 cells is given for two independent experiments.
To determine whether or not the absence of an acidic environment resulted from failure of lysosomes to fuse with autophagosomes, cells were transfected with both GFP-LC3 and LAMP1-RFP expression vectors, and then cultured for 4 hours in the presence of vehicle, rapamycin, or both rapamycin and compound 1 (FIG. 13). Rapamycin is an established inducer of autophagy (42, 43). As expected, rapamycin induced accumulation of GFP-LC3 labeled autophagosomes (green), some of which were autolysosomes, as shown by co-localization with LAMP1-RFP on control cells. In contrast, GFP-LC3 and LAMP1-RFP labeled different populations of vesicles in cells cultured with either compound 1 or rapamycin and compound 1, despite the fact that the density of autophagosomes was at least 3-fold greater.

- pEC50 [1]: < 5.00
Structure (SMILES): C1=Nc2ccccc2/C1=C/NNc1nc(Nc2ccccc2)nc(N2CCOCC2)n1 [compound 1]
- pEC50 (embryonic kidney cells): < 5.00
- Delay of p62 accumulation relative to LC3-II [2]: about 3 hours
- Sensitivity of inhibition of lysosome fission relative to accumulation of autophagosomes [2]: at least 5 fold
- Concentration required for near maximum levels of LC3-II accumulation ([2]; 4 hrs): 0.1 to 0.5 µM
- Accumulation of LC3-II ([2]; U2OS cells): comparable increase in LC3-II
- Time to accumulation of LC3-II and p62 ([2]; U2OS cells): ≤ 4 h
- Cytoplasmic vacuolization of A375 cells (melanoma A375 cells): induced extensive cytoplasmic vacuolization
- Cellular level of mature cathepsin D relative to vehicle treated cells [3]: about 50%
- pEC50 [4]: < 5.00
- LC3-II and p62 proteins in tumor lysates (melanoma A375 tumors; Western blot): increased levels of LC3-H and p62 proteins
- Cytoplasmic vacuolation in tumor slices (melanoma A375 tumors; hematoxylin and eosin): clearly evident
- Efficacy at reducing U2OS viability relative to HCQ or CQ (osteosarcoma U2OS cells): 13 times
- Density of autophagosomes relative to rapamycin alone (U2OS cells): at least 3 fold
